Reference: patent publication US20250099952A1, “MICROFLUIDIC DEVICE AND USES THEREOF” (CASE WESTERN RESERVE UNIVERSITY, priority 2019, published 2025)

Key:
RBCs from healthy donors = test: Occlusion Chip microfluidic assessment of RBC deformability (RBC Occlusion Index) after chemical treatment; format: cell-based, human; conditions: for RBC Occlusion Index (ROI), mean±SEM: directly suspended in PBS, N=4
Experimental: Whole blood samples were centrifuged at 500×g for 5 min at 4° C., plasma was removed, and the RBCs were washed twice in PBS, and re-suspended at a 20% hematocrit value. The Occlusion Chip was placed on an Olympus IX83 inverted motorized microscope stage for high-resolution imaging. The RBC samples were perfused through the microchannel under constant pressure for 20 min (FIGS. 12A & B). Non-retained RBCs were rinsed away by injecting PBS into the microchannel under the same pressure. […] Phase contrast, bright field, and fluorescent images were recorded at 20× using the Olympus Cell Sense live imaging software (excitation/emission wavelength, 488/505-580 for Green Fluorescent Protein, GFP). Post processing of recorded images and cell counting were performed using Adobe Photoshop (San Jose, CA). Oxygen tension was controlled in hypoxia experiments using a custom designed gas exchange setup as described in Supplementary Materials. Scanning electron microscopy was performed on the micropillars and RBCs.
Glutaraldehyde, a non-specific protein cross-linker, and diamide, a thiol group oxidant inducing disulfide cross-linking of band 3, are used to stiffen RBCs in order to mimic impaired RBC deformability, seen in pathological conditions. Precisely controlled exposure of RBC to graded concentrations of glutaraldehyde or diamide was utilized to verify Occlusion Chip functionality. RBCs from healthy donors exposed to graded concentrations, 0.00% (as control), 0.02%, 0.04%, and 0.08% (w/v), of glutaraldehyde were mixed with untreated normal RBCs to achieve 1% treated cells and were suspended in PBS for microfluidic assessment. RBCs exposed to same graded concentrations of diamide were directly suspended in PBS for microfluidic assessment. […] The retained RBCs were fluorescently labeled with anti-glycophorin A (CD235a, Abcam, Cambridge, MA) antibodies. […] At the end of the test, numbers of occlusions induced by poorly-deformable RBCs within each micropillar array were quantified (FIGS. 7D&E). […] To assess the overall RBC deformability of specific samples, we assigned different weight to the occlusion events quantitated within different micropillar arrays, and defined a new parameter ‘RBC Occlusion Index’ (ROI) using the following equation,
Mercury is a toxic heavy metal that binds to RBC membranes with high affinity and results in RBC hemolysis. Mercuric ions induce membrane conformational changes and impair RBC deformability.

[1] = system: RBCs in whole venous blood; test: Fibrinogen-accelerated RBC sedimentation in whole blood; format: cell-based, human; conditions: fibrinogen stock 40 mg/ml mixed with whole blood 1:9 to 1:1 (v/v), monitored over 20 min, compared to PBS
Experimental: The experiments are performed immediately after blood draw through […]. We examine the effect of additional fibrinogen on RBC sedimentation, which has been reported to have a marked correlation between the concentration of and the erythrocyte sedimentation rate.
Whole venous blood was drawn with anticoagulated EDTA into a 1.5 ml microcentrifuge tube. Fibrinogen stock solution with the concentration of 40 mg/ml (in PBS) was mixed with whole blood at ratios of 1:9, 1:4, 1:2, and 1:1 (v/v) and the final volume of the mixtures was adjusted to 500 μl. Control groups were mixtures of whole blood and PBS at the same volume ratios. The sedimentation of RBCs was monitored over a period of 20 minutes. […] In addition, fibrinogen mediated RBC sedimentation became stable when it approached 20 min, and no more noticeable difference was observed between blood samples with different concentrations of fibrinogen. Therefore, the 1:9 fibrinogen and whole blood mixture (4 mg/ml final fibrinogen concentration) was selected based on a cost-effective point of view, from which 150 μl plasma was collected for further processing.

Compound: CN(C)C(=O)/N=N/C(=O)N(C)C [diamide]
- RBC Occlusion Index (ROI), mean±SEM (RBCs from healthy donors; RBCs exposed to 0.02% diamide): 329.9±37.2
- RBC Occlusion Index (ROI), mean±SEM (RBCs from healthy donors; RBCs exposed to 0.04% diamide): 459.8±71.6
- RBC Occlusion Index (ROI), mean±SEM (RBCs from healthy donors; RBCs exposed to 0.08% diamide): 645.1±87.6
- effect on RBC stiffness and membrane morphology (RBCs from healthy donors; diamide exposure, micropillar device 20 μm to 4 μm): induce structural stiffening of RBCs without interrupting the cell membrane morphology

Compound: O=CCCCC=O [glutaraldehyde]
- increase in total occlusion level compared to the control (RBCs from healthy donors; 0.08% (w/v) glutaraldehyde): more than 16 fold

Compound: fibrinogen
- RBC sedimentation (visual, words) [1]: significantly accelerated the sedimentation of RBCs compared to PBS

Compound: mercuric ion
- effect on RBC deformability (RBCs from healthy donors): moderately reduces RBC deformability
